Experimental data: US8163479B2, “Specific substrates for O6-alkylguanine-DNA alkyltransferase” (Ecole Polytechnique Federale de Lausanne, priority 2004, dated 2012)
Numbering of substitutions follows the chain as printed.

Legend:
[1] = system: AGTM or AGT21; test: One-pot labeling and separation with streptavidin magnetic beads; assay type: biochemical, human; conditions: 5 μM protein, 10 μM substrate, 1 hour; fluorescence 490/535 nm in supernatant
Method: In other experiments, purified AGTM or AGT21 (Example 47) in a protein concentration of 5 μM are incubated with 10 μM N-[4-(2-amino-8-(3-(N-(+)-biotinyl-6-aminocaproyl)-aminopropyl)-9H-purin-6-yloxymethyl)-benzyl]-fluoresceine-5(6)-carboxamide (52, Example 34) in 50 μl buffer containing 100 mM NaCl, 50 mM Tris, pH 8.0, 0.1% Tween, 1 mM DTT at room temperature. After 1 hour, streptavidin coated magnetic beads (Magnabind Streptavidin, Pierce) with a capacity to bind at least 1 nmol biotin are added and the incubation time and magnetic separation from the supernatant containing fluorescein-labeled protein are done according to manufacturer's instructions for use. The amount of protein in solution before and after the treatment with magnetic beads is determined by Bradford assay. The loss of protein is less than 30%. The labeling efficiency is determined by measuring the fluorescence intensity using a Victor2 microplate reader (Perkin Elmer) at 490 nm excitation and 535 nm emission in the supernatant after removal of the unreacted substrate and released product by binding to the beads and magnetic separation. The labeling efficiency is at least 20%.

[2] = target: T1, AGTM (Homo sapiens, UniProt P16455, A127T/C150N/C62A/G131K/G132T/K125A/M134L/N157G/Q115S/Q116H/R128A/R135S/S151I/S152N/S159E); test: Labeling with substrate pre-immobilized on streptavidin magnetic beads; assay type: biochemical; conditions: AGTM 50 μM, 20 h
T1 construct: a truncation after codon 182 into the mutant AGT gene
T1 sequence (P16455 1-182 C62A/Q115S/Q116H/K125A/A127T/R128A/G131K/G132T/M134L/R135S/C150N/S151I/S152N/N157G/S159E): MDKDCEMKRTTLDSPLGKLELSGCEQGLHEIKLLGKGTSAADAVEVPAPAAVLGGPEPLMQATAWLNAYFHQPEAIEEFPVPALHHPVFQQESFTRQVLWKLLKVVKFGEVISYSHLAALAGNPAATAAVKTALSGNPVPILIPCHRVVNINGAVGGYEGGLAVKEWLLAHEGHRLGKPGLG
Method: In a further experiment, wherein the substrate is pre-immobilized, streptavidin coated magnetic beads (Magnabind Streptavidin, Pierce) with a capacity to bind […] biotin per ml are incubated with twofold excess of compound 52 (as above) in buffer containing 100 mM NaCl, 50 mM Tris, pH 8.0, 0.1% Tween at room temperature to immobilize the substrate to the beads. The incubation time and magnetic separation from the supernatant are done according to manufacturer's instructions for use. Unbound substrate is removed with buffer by 3 subsequent washing steps. AGTM at a protein concentration of 50 μM is incubated with these substrate-modified beads in 50 μl buffer containing 100 mM NaCl, 50 mM Tris, pH 8.0, 0.1% Tween, 1 mM DTT at room temperature. After 20 h, the beads are separated from the supernatant containing fluorescein-labeled protein. The amount of protein in solution before and after the treatment with magnetic beads is determined by Bradford assay.

[3] = target: T2, wild type hAGT-GST fusion protein (Homo sapiens, UniProt P16455); test: In vitro competition CPTG/BGBT, both proteins in one solution; assay type: biochemical; conditions: both substrates CPTG and BGBT 5 μM, 30 min
T2 sequence (P16455 1-207): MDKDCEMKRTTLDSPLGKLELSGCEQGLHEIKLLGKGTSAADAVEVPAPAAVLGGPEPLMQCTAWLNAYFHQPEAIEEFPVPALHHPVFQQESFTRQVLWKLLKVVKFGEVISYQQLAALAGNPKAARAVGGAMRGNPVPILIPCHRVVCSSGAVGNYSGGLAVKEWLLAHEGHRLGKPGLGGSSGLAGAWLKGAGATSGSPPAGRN
Method: (§1) Detection of the AGTM-BGBT complex with luminescent peroxidase substrate is as described for FIG. 2.
(§2) The reaction is quenched by addition of 2×SDS buffer and placed 2 min at 95° C. Samples are run on a 12% acrylamide gel and analysed by Western blotting.
(§3) In comparing the reaction of AGTM and wild type hAGT, a high specificity of CPTG toward hAGT is observed. At the same concentration (both substrates 5 μM final concentration), 95% of wild type AGT has reacted with CPTG versus only 5% of AGTM.

[4] = target: T3, AGTM-6×His fusion protein (Homo sapiens, UniProt P16455, A127T/C150N/C62A/G131K/G132T/K125A/M134L/N157G/Q115S/Q116H/R128A/R135S/S151I/S152N/S159E); test: as above; assay type: biochemical; conditions: both substrates CPTG and BGBT 5 μM, 30 min
T3 construct: a truncation after codon 182 into the mutant AGT gene; 6xHis
T3 sequence (P16455 1-182 C62A/Q115S/Q116H/K125A/A127T/R128A/G131K/G132T/M134L/R135S/C150N/S151I/S152N/N157G/S159E): T1 sequence (P16455 1-182 C62A/Q115S/Q116H/K125A/A127T/R128A/G131K/G132T/M134L/R135S/C150N/S151I/S152N/N157G/S159E)
Method: as §1, §2, §3

[5] = target: T4, AGTM (mutant AGT) (Homo sapiens, UniProt P16455, A127T/C150N/C62A/G131K/G132T/K125A/M134L/N157G/Q115S/Q116H/R128A/R135S/S151I/S152N/S159E); test: Reaction rate of AGT mutant with substrate, BGBT capture and Western blot; assay type: biochemical
T4 construct: a truncation after codon 182 into the mutant AGT gene; 6xHis
T4 sequence (P16455 1-182 C62A/Q115S/Q116H/K125A/A127T/R128A/G131K/G132T/M134L/R135S/C150N/S151I/S152N/N157G/S159E): T1 sequence (P16455 1-182 C62A/Q115S/Q116H/K125A/A127T/R128A/G131K/G132T/M134L/R135S/C150N/S151I/S152N/N157G/S159E)
Source text: Proteins are then denatured with SDS and heat. Samples are subjected to SDS-PAGE and Western blot analysis. The intensity of the corresponding bands is detected by chemiluminescence stain.
A second AGT mutant (“AGTM”) containing the mutations Cys62Ala, Gln115Ser, Gln116His, Lys125Ala, Ala127Thr, Arg128Ala, Gly131Lys, Gly132Thr, Met134Leu, Arg135Ser, Cys150Asn, Ser15111e, Ser152Asn, Asn157Gly, Ser159G1u, and truncation at 182 is derived from the mentioned above AGT mutant by subsequent introduction of further mutations and a truncation after codon 182 into the mutant AGT gene. […] The GST-fusion protein is expressed and purified as well.
AGTM (1 μM final concentration) is incubated with N^9-cyclopentyl-O^6-(4-bromothiophen-2-yl)-guanine (18, CPTG) (10 μM in 1% DMSO final concentration) in reaction buffer (50 mM HEPES, 1 mM DTT, […] BSA, pH 7.3) at 24° C. […] The reaction is quenched by addition of SDS-Laemmli buffer and heating for 2 min at 95° C. Samples are run on a 12% acrylamide gel and analysed by Western blotting.

[6] = target: T5, Mutant AGT (AGTM) (Homo sapiens, UniProt P16455, A127T/C150N/C62A/G131K/G132T/K125A/M134L/N157G/Q115S/Q116H/R128A/R135S/S151I/S152N/S159E); test: In vitro competition between CPTG and BGBT, separate incubation; assay type: biochemical; conditions: CPTG 20 times higher than BGBT (0.5 μM), after 45 minutes
T5 construct: a truncation after codon 182 into the mutant AGT gene
T5 sequence (P16455 1-182 C62A/Q115S/Q116H/K125A/A127T/R128A/G131K/G132T/M134L/R135S/C150N/S151I/S152N/N157G/S159E): T1 sequence (P16455 1-182 C62A/Q115S/Q116H/K125A/A127T/R128A/G131K/G132T/M134L/R135S/C150N/S151I/S152N/N157G/S159E)
Method: as §2

[7] = target: T6, wild type hAGT (Homo sapiens, UniProt P16455); test: as above; assay type: biochemical; conditions: CPTG 20 times higher than BGBT (0.5 μM), after 45 minutes
T6 sequence (P16455 1-207): T2 sequence (P16455 1-207)
Method: as §2

[8] = target: T7, AGT (Gly160Trp)-NLS3 fusion protein in the nucleus of CHO cells (Homo sapiens, UniProt P16455, G160W); test: Intracellular competition of two AGT mutants with two substrates in CHO cells; assay type: cell-based; conditions: 5 μM CPTG 10 min, then 5 μM BG-AcFL 20 min
T7 construct: expressed in transfected cells; host or cells: CHO cells, transient expression
T7 sequence (P16455 1-207 G160W): T2 sequence (P16455 1-207) with G160W
Source text: (§4) The mutant AGTM (Example 47) is amplified with the suitable primers and cloned between the NheI and BglII sites of the vector pEGFP-Nuc. The yeast β-galactosidase gene is likewise amplified and subcloned into this vector via BglII/BamHI to result in a vector with an AGT-β-Gal fusion gene. The wild type hAGT gene is amplified and cloned via NheI/BglII into pEGFP-Nuc to result in an AGT-NLS3 fusion gene coding for the mutation Gly160Trp.

[9] = target: T8, AGTM-β-galactosidase fusion protein in CHO cells (Homo sapiens, UniProt P16455, A127T/C150N/C62A/G131K/G132T/K125A/M134L/N157G/Q115S/Q116H/R128A/R135S/S151I/S152N/S159E); test: as above; assay type: cell-based; conditions: 5 μM CPTG 10 min, then 5 μM BG-AcFL 20 min
T8 construct: a truncation after codon 182 into the mutant AGT gene; expressed in transfected cells; host or cells: CHO cells, transient expression
T8 sequence (P16455 1-182 C62A/Q115S/Q116H/K125A/A127T/R128A/G131K/G132T/M134L/R135S/C150N/S151I/S152N/N157G/S159E): T1 sequence (P16455 1-182 C62A/Q115S/Q116H/K125A/A127T/R128A/G131K/G132T/M134L/R135S/C150N/S151I/S152N/N157G/S159E)
Source text: as §4

Substance | labeling efficiency [1] | labeling efficiency [2] | loss of protein ([2]; Bradford assay) | wild type AGT reacted with CPTG [3] [%] | AGTM reacted with CPTG [4] [%] | activity ratio of the two substrates BGBT/CPTG ([5]; AGTM) | second order rate constant k2 ([5]; AGTM 1 μM, substrate 10 μM, 24° C., pH 7.3) [M⁻¹ s⁻¹] | mutant AGTM still active [6] [%] | wild type AGT quenched by CPTG [7] [%] | reaction with CPTG inside cells [8] | reaction with CPTG inside cells [9]
N-[4-(2-Amino-8-(3-(N-(+)-biotinyl-6-aminocaproyl)-aminopropyl)-9H-purin-6-yloxymethyl)-benzyl]-fluoresceine-5(6)-carboxamide [compound 52] | at least 20% | at least 20% | less than 30% |  |  |  |  |  |  |  | 
N^9-Cyclopentyl-O^6-(4-bromothiophen-2-yl)-guanine [CPTG] |  |  |  | 95 | 5 | at least 25 | 92.5 | 87 | 95 | efficiently reacts with CPTG | does not react with CPTG
